In patent US11254649B2, “Crystalline fumarate salt of (S)-[3,4-difluoro-2-(2-fluoro-4-iodophenylamino)phenyl] [3-hydroxy-3-(piperidin-2-yl) azetidin-1-yl]-methanone” (Exelixis, Inc., priority 2015, dated 2022):
Entries after “also recorded” stand apart in the source; their conditions may differ. Where a name gives a salt, the structure may show the parent alone.

Legend:
Format in all cases: physicochemical
[1] = Storage stability at 25° C/0% RH and 25° C/90% RH; details: 25° C/0% relative humidity (RH) and 25° C/90% RH
[2] = Hygroscopicity by dynamic moisture sorption/desorption (DVS); details: 25° C.; for reversible weight gain or loss: between 0% RH and 90% RH; for conversion during dynamic vapor sorption experiments: time scale of standard DVS experiments, 0-90% RH; for hygroscopicity classification: weight increase 0% RH to 90% RH
Method: Moisture sorption/desorption data were collected on a DVS-1/DVS-HT/DVS-intrinsic (SMS Surface Measurements Systems) moisture balance system. The sorption/desorption isotherms were measured stepwise in a range of 0% RH (relative humidity) to 90% RH at 25° C. A weight change of <0.002 mg/min was chosen as a criterion to switch to the next level of RH (with a maximum equilibration time of 24 hours, if the weight criterion was not met). The data were corrected for the initial moisture content of the samples; that is, the weight after drying the sample at 0% RH was taken as the zero point. The hygroscopicity of a given substance is characterized by the increase in mass when the RH was raised from 0% RH to 90% RH as given in Table 7. [table]

[3] = Polymorphism screening / solid form stability and conversion; details: for thermodynamic stability / conversion of solid form: polymorphism screening, approximately 3000 crystallization experiments
Method: The amorphous form is non-crystalline and hygroscopic. […] In approximately 3000 crystallization experiments performed during polymorphism screenings, no additional polymorphic form was observed. Based on DSC measurements as well as temperature-controlled XRPD, no conversion of the polymorphic form is observable under heating until melting occurs. […] DSC thermograms were recorded using a Mettler-Toledo instrument (DSC820/821e/1; FRS05 sensor). Approximately 2-6 mg of the sample were placed in aluminum pans and sealed with aluminum lids. Lids were automatically pierced prior to heating. Generally, samples under nitrogen were heated at a rate of 10 K/min to a maximum of 250° C.

[4] = Intrinsic dissolution rate (USP <1088>); details: for Intrinsic Dissolution Rate: pellet 0.5 cm^2, 0.05M Acetate Buffer pH = 4.5, 37 C., 100 RPM, UV at 278 nm
Description: For each intrinsic dissolution measurement, a pellet was produced from the crystalline Form A or the amorphous form sample using an applied load of approximately 15 kN into a flat disk (surface area=0.5 cm^2). After compaction, each pellet was checked by XRPD to confirm that no polymorphic transformation had occurred during the pelleting process. [table] Batches of Form A and the amorphous form (from freeze-drying) were used to determine the intrinsic dissolution rate of both solid forms. Intrinsic dissolution allows the characterization of different crystal forms by exposing a constant surface area to the dissolution medium.

Water solubility = details: at 25° C.
[5] = listed as crystalline fumarate salt of Compound I

For `O=C(c1ccc(F)c(F)c1Nc1ccc(I)cc1F)N1CC(O)([C@@H]2CCCCN2)C1` [Form A, crystalline fumarate salt of (S)-[3,4-difluoro-2-(2-fluoro-4-iodophenylamino)phenyl] [3-hydroxy-3-(piperidin-2-yl)azetidin-1-yl]-methanone], the “change in assay, purity, moisture and dissolution” value [1] was “no change”, the “reversible weight gain or loss” value [2] was 0.1% and the “conversion during dynamic vapor sorption experiments” value [2] was “no conversion was observed”. For the same compound, the hygroscopicity classification [2] was “non-hygroscopic; also recorded: nonhygroscopic”, the hygroscopicity classification [2, 5] was “non-hygroscopic” and the “thermal stability by DSC” value ([3]; DSC) was “stable up to the melting point of 239 °C”. For the same compound, the “thermodynamic stability / conversion of solid form” value [3] was “thermodynamically stable form”, the “thermodynamic stability / conversion of solid form” value [3, 5] was “thermodynamically stable” and the “Intrinsic Dissolution Rate” value [4] was 0.0756 mg*cm−2*min−1. The solubility (Water solubility) was 1600 µg/mL.
For `O=C(c1ccc(F)c(F)c1Nc1ccc(I)cc1F)N1CC(O)([C@@H]2CCCCN2)C1` [the amorphous form], the “reversible weight gain or loss” value ([2]; listed as the amorphous from) was 12.1%, the “conversion during dynamic vapor sorption experiments” value [2] was “no conversion was observed” and the hygroscopicity classification [2] was “hygroscopic”. For the same compound, the hygroscopicity classification ([2]; listed as The amorphous form) was “hygroscopic”, the hygroscopicity classification ([2]; listed as the amorphous from) was “hygroscopic” and the “conversion in slurry experiment” value ([3]; 2-propanol/water 88:12, 20° C.) was “converted rapidly into Form A”. The “thermodynamic stability / conversion of solid form” value [3] was “converts to crystalline Form A”, the “thermodynamic stability / conversion of solid form” value ([3]; listed as The amorphous form) was “convert to Form A by heating and by solvent mediated phase transition in water” and the “intrinsic dissolution rate relative to crystalline Form A” value ([4]; amorphous form vs Form A) was “approximately 35 times”. For the same compound, the “Intrinsic Dissolution Rate” value [4] was 2.6996 mg*cm−2*min−1.
